Measured values taken from patent publication US20200022998A1, “MEDICAL USE OF NOTCH4 OR INHIBITORS THEREOF” (BEIJING INSTITUTE OF GENOMICS, CHINESE ACADEMY OF SCIENCES, priority 2016, published 2020).

Tests used:
Format in all cases: cell-based, human
[1] = test system: umbilical cord blood-derived CD34+ cells; assay: in vitro megakaryocyte lineage differentiation of umbilical cord blood-derived CD34+ cells, flow cytometry; conditions: 10 μM; for number of mature megakaryocytes (CD41+CD42+) produced, increase vs control group: FIG. 15; for proportion of mature megakaryocyte (CD61+), increase vs control group / proportion of mature megakaryocytes MK (CD41+CD42+) produced, increase vs control group: cells collected at D14, FIG. 14
Method: (1) CD34^+ cells in umbilical cord blood were obtained by Ficoll-Paque PLUS density gradient centrifugation and magnetic bead sorting using CD34 MicroBead Kit. As to the particular steps, please refer to (GE Healthcare Life Sciences, http://www.gelifesciences.com), (Miltenyi Biotec, http://www.miltenyibiotec.com.cn).
(2) Differentiation of umbilical cord blood-derived CD34^+ cells into megakaryocytes: umbilical cord blood-derived CD34^+ cells were counted, and seeded at 1*10^6 cells to 4 ml StemSpan™ SFEM 11+50 ng/ml SCF+50 ng/ml TPO+50 ng/ml IL-6+20 ng/ml IL-3 in a 12-well plate, with 1 ml medium for each well, and four wells in total, to which 10 μM R04929097, 10 μM L-685458, 10 μM DAPT, and the same volume of DMSO as control were added, respectively, and the time was recorded as Day 0. The liquid was changed every 3 days, and the culture condition was 37° C., 5% CO2. After incubation for 6 days, the cell density was high, and the cells in each well were divided into two wells of a 12-well plate, with 2 ml medium for each well. The inhibitors were added at the same concnetrations as described above. The cells were collected at D14, counted, and detected for cell surface markers (CD41, CD42, CD61) by flow cytometer.
As to the collection of umbilical cord blood-derived CD34^+ cells, in vitro megakaryocytic differentiation and detection, please refer to Example 4-1.

[2] = test system: iPSCs-derived CD34+ cells; assay: polyploid detection, iPSC-derived CD34+ cells; conditions: 10 μM; Notch inhibitor added since Day 5; DMSO about 18%; FIG. 17
Method: iPSC-derived CD34^+ cells (prepared by the method as described in Example 3-2) and umbilical cord blood-derived CD34^+ cells were seeded at 1*10^6 cells per well to 4 ml StemSpan™ SFEM 11+50 ng/ml SCF+50 ng/ml TPO+50 ng/ml IL-6+20 ng/ml IL-3, in a 12-well plate, with 1 ml medium for each well, and 3 wells in total for each cell line, […] The liquid was changed every 3 days, and the culture condition was 37° C., 5% CO2. After iPSC-derived CD34^+ cells were incubated for 6 days, and umbilical cord blood-derived CD34^+ cells were incubated for 9 days, the following experiment was carried out.
Cells were labeled with CD61-FITC flow cytometric antibody at 4° C. for 30 min. The cells were washed with PBS once, and fixed with 70% ethanol at 4° C. overnight. At the second day, the cells were washed with PBS once. After centriguation, 1 ml PBE (PBS containing 2% serum) +100 μg/ml RNase A +50 μg/ml Propidium Iodide, was added, and incubation was carried out in dark at room temperature for 30 min. The cells were washed with PBS once, and the number of cells (≥8N) in CD61^+ cell population was determined by flow cytometry.

[3] = test system: iPSCs-derived CD34+ cells; assay: proplatelet formation, iPSC-derived CD34+ cells; conditions: 10 μM; DMSO about 47%; FIG. 19D
Method: iPSC-derived CD34^+ cells (prepared by the method as described in Example 3-2) and umbilical cord blood-derived CD34^+ cells were seeded at 1*10^6 cells per well to 4 ml StemSpan™ SFEM 11+50 ng/ml SCF+50 ng/ml TPO+50 ng/ml IL-6+20 ng/ml IL-3, in a 12-well plate, with 1 ml medium for each well, and 3 wells in total for each cell line, to which 10 μM RO4929097, 10 μM DAPT, and the same volume of DMSO as control, were added, respectively, and the time was recorded as Day 0. The liquid was changed every 3 days, and the culture condition was 37° C., 5% CO2. After iPSC-derived CD34^+ cells were incubated for 6 days, and umbilical cord blood-derived CD34^+ cells were incubated for 9 days, the following experiment was carried out.
Proplatelet formation of MKs referred to mature megakaryocytes, which extended long and branched filaments and cytoplasmic protrusions.

SMILES	number of mature megakaryocytes (CD41+CD42+) produced, increase vs control group [1] [folds]	proportion of mature megakaryocyte (CD61+), increase vs control group [1] [folds]	proportion of mature megakaryocytes MK (CD41+CD42+) produced, increase vs control group [1] [folds]	proportion of polyploid megakaryocytes (≥8N) in CD61+ megakaryocytes [2]	proportion of proplatelet-bearing MKs in 100 differentiated cells [3]
C[C@H](NC(=O)Cc1cc(F)cc(F)c1)C(=O)N[C@H](C(=O)OC(C)(C)C)c1ccccc1 [DAPT]	2.9	2.5	4.1	~21%	~50%
CC(C)(C(=O)NCC(F)(F)C(F)(F)F)C(=O)N[C@@H]1C(=O)Nc2ccccc2-c2ccccc21 [RO4929097]	2.9	3.1	4.5	about 17%	about 46%
